Source: patent publication US11059773B2, “Type-B fenolamine crystal form, preparation method, composition and use thereof” (INSTITUTE OF MATARIA MEDICA, CHINESE ACADEMY OF MEDICAL …, priority 2017, dated 2021)
“Also recorded” adds a separate entry of the source.

Key:
[1] = Dissolution of type-B fenolamine crystal form in six solvent systems; format: physicochemical
Experimental: The solubility was evaluated by using a type-B fenolamine crystal form sample (fenolamine:ethanol=1:0.2) having a crystallized ethanol content of 2.0%.
The solvent systems were selected by: (1) referring to solvent systems used in the dissolution determination method in the Appendix of the Pharmacopoeia; (2) referring to the digestive solution pH in various organs of an organism; (3) improving the solubility of water-insoluble drugs. Based the above three references, solvent systems with six pH values were set up: a 0.1 N hydrochloric acid solution with pH 1.2; an acetate buffer solution with pH 4.5; a phosphate buffer solution with pH 6.5; an water solution with pH 6.7; a 0.2% SDS solution with pH 7.0; a 0.5% SDS solution with pH 7.3.
Measurement was carried out according to the solubility determination method (“Guidelines for Dissolution Test Technique of General Oral Solid Preparations (Draft)”, October 2012, the Drug Review Center). With the percentage of the samples dissolved by mass calculated from the absorbance data, solubility curves were respectively drawn with time as abscissa and dissolved contents as ordinate and shown in FIG. 10.

[2] = Stability of type-B fenolamine crystal form solid (influencing factors: high temperature, high humidity, illumination); format: physicochemical; settings: starting ethanol content 2.58%
Experimental: Type-B fenolamine crystal form samples (having a crystallized ethanol content of 2.58%) were placed in open clean watch glasses, and kept under conditions of a high temperature of 60° C., a high temperature of 40° C., and 25° C., a relative humidity of 90%±5%, and illumination at 4500 lx±500 lx for 10 days, and samples were taken on Days 0, 5, and 10. Powder X-ray diffraction (with a resultant pattern consistent to that in FIG. 1) and gas chromatography means were used for analysis.

- Dissolution (percentage of sample dissolved by mass) ([1]; 0.1N hydrochloric acid pH 1.2, 5 min): 0.00%
- Dissolution (percentage of sample dissolved by mass) ([1]; 0.1N hydrochloric acid pH 1.2, 15 min): 0.00%
- Dissolution (percentage of sample dissolved by mass) ([1]; 0.1N hydrochloric acid pH 1.2, 30 min): 2.35%
- Dissolution (percentage of sample dissolved by mass) ([1]; 0.1N hydrochloric acid pH 1.2, 60 min): 5.75%
- Dissolution (percentage of sample dissolved by mass) ([1]; 0.1N hydrochloric acid pH 1.2, 120 min): 11.42%
- Dissolution (percentage of sample dissolved by mass) ([1]; 0.1N hydrochloric acid pH 1.2, 180 min): 14.07%
- Dissolution (percentage of sample dissolved by mass) ([1]; 0.1N hydrochloric acid pH 1.2, 240 min): 18.54%
- Dissolution (percentage of sample dissolved by mass) ([1]; 0.1N hydrochloric acid pH 1.2, 300 min): 20.04%
- Dissolution (percentage of sample dissolved by mass) ([1]; 0.1N hydrochloric acid pH 1.2, 360 min): 23.69%
- Dissolution (percentage of sample dissolved by mass) ([1]; 0.1N hydrochloric acid pH 1.2, 420 min): 25.07%
- Dissolution (percentage of sample dissolved by mass) ([1]; 0.2% SDS pH 7.0, 5 min): 21.57%
- Dissolution (percentage of sample dissolved by mass) ([1]; 0.2% SDS pH 7.0, 15 min): 32.50%
- Dissolution (percentage of sample dissolved by mass) ([1]; 0.2% SDS pH 7.0, 30 min): 42.43%
- Dissolution (percentage of sample dissolved by mass) ([1]; 0.2% SDS pH 7.0, 60 min): 59.66%
- Dissolution (percentage of sample dissolved by mass) ([1]; 0.2% SDS pH 7.0, 120 min): 91.98%
- Dissolution (percentage of sample dissolved by mass) ([1]; 0.2% SDS pH 7.0, 180 min): 92.35%
- Dissolution (percentage of sample dissolved by mass) ([1]; 0.2% SDS pH 7.0, 240 min): 95.75%
- Dissolution (percentage of sample dissolved by mass) ([1]; 0.2% SDS pH 7.0, 300 min): 95.82%
- Dissolution (percentage of sample dissolved by mass) ([1]; 0.2% SDS pH 7.0, 360 min): 95.90%
- Dissolution (percentage of sample dissolved by mass) ([1]; 0.2% SDS pH 7.0, 420 min): 95.93%
- Dissolution (percentage of sample dissolved by mass) ([1]; 0.5% SDS pH 7.3, 5 min): 35.04%
- Dissolution (percentage of sample dissolved by mass) ([1]; 0.5% SDS pH 7.3, 15 min): 55.30%
- Dissolution (percentage of sample dissolved by mass) ([1]; 0.5% SDS pH 7.3, 30 min): 73.32%
- Dissolution (percentage of sample dissolved by mass) ([1]; 0.5% SDS pH 7.3, 60 min): 86.90%
- Dissolution (percentage of sample dissolved by mass) ([1]; 0.5% SDS pH 7.3, 120 min): 97.35%
- Dissolution (percentage of sample dissolved by mass) ([1]; 0.5% SDS pH 7.3, 180 min): 97.69%
- Dissolution (percentage of sample dissolved by mass) ([1]; 0.5% SDS pH 7.3, 240 min): 98.40%
- Dissolution (percentage of sample dissolved by mass) ([1]; 0.5% SDS pH 7.3, 300 min): 98.47%
- Dissolution (percentage of sample dissolved by mass) ([1]; 0.5% SDS pH 7.3, 360 min): 98.51%
- Dissolution (percentage of sample dissolved by mass) ([1]; 0.5% SDS pH 7.3, 420 min): 100.00%
- Dissolution (percentage of sample dissolved by mass) ([1]; Acetate buffer pH 4.5, 5 min): 0.00%
- Dissolution (percentage of sample dissolved by mass) ([1]; Acetate buffer pH 4.5, 15 min): 0.00%
- Dissolution (percentage of sample dissolved by mass) ([1]; Acetate buffer pH 4.5, 30 min): 0.49%
- Dissolution (percentage of sample dissolved by mass) ([1]; Acetate buffer pH 4.5, 60 min): 2.57%
- Dissolution (percentage of sample dissolved by mass) ([1]; Acetate buffer pH 4.5, 120 min): 7.54%
- Dissolution (percentage of sample dissolved by mass) ([1]; Acetate buffer pH 4.5, 180 min): 11.34%
- Dissolution (percentage of sample dissolved by mass) ([1]; Acetate buffer pH 4.5, 240 min): 15.82%
- Dissolution (percentage of sample dissolved by mass) ([1]; Acetate buffer pH 4.5, 300 min): 19.51%
- Dissolution (percentage of sample dissolved by mass) ([1]; Acetate buffer pH 4.5, 360 min): 20.15%
- Dissolution (percentage of sample dissolved by mass) ([1]; Acetate buffer pH 4.5, 420 min): 20.71%
- Dissolution (percentage of sample dissolved by mass) ([1]; Phosphate buffer pH 6.5, 5 min): 49.51%
- Dissolution (percentage of sample dissolved by mass) ([1]; Phosphate buffer pH 6.5, 15 min): 49.81%
- Dissolution (percentage of sample dissolved by mass) ([1]; Phosphate buffer pH 6.5, 30 min): 49.89%
- Dissolution (percentage of sample dissolved by mass) ([1]; Phosphate buffer pH 6.5, 60 min): 49.96%
- Dissolution (percentage of sample dissolved by mass) ([1]; Phosphate buffer pH 6.5, 120 min): 51.08%
- Dissolution (percentage of sample dissolved by mass) ([1]; Phosphate buffer pH 6.5, 180 min): 51.72%
- Dissolution (percentage of sample dissolved by mass) ([1]; Phosphate buffer pH 6.5, 240 min): 51.87%
- Dissolution (percentage of sample dissolved by mass) ([1]; Phosphate buffer pH 6.5, 300 min): 53.32%
- Dissolution (percentage of sample dissolved by mass) ([1]; Phosphate buffer pH 6.5, 360 min): 53.40%
- Dissolution (percentage of sample dissolved by mass) ([1]; Phosphate buffer pH 6.5, 420 min): 53.47%
- Dissolution (percentage of sample dissolved by mass) ([1]; Water pH 6.7, 5 min): 0.00%
- Dissolution (percentage of sample dissolved by mass) ([1]; Water pH 6.7, 15 min): 0.34%
- Dissolution (percentage of sample dissolved by mass) ([1]; Water pH 6.7, 30 min): 2.01%
- Dissolution (percentage of sample dissolved by mass) ([1]; Water pH 6.7, 60 min): 5.26%
- Dissolution (percentage of sample dissolved by mass) ([1]; Water pH 6.7, 120 min): 11.42%
- Dissolution (percentage of sample dissolved by mass) ([1]; Water pH 6.7, 180 min): 20.22%
- Dissolution (percentage of sample dissolved by mass) ([1]; Water pH 6.7, 240 min): 21.94%
- Dissolution (percentage of sample dissolved by mass) ([1]; Water pH 6.7, 300 min): 26.04%
- Dissolution (percentage of sample dissolved by mass) ([1]; Water pH 6.7, 360 min): 28.96%
- Dissolution (percentage of sample dissolved by mass) ([1]; Water pH 6.7, 420 min): 32.13%
- Crystallized ethanol content after storage ([2]; 10 days at high temperature): about 2.1%
SMILES: COc1ccc(OC)c(/C(=C\c2ccc(O)c(OC)c2)C(=O)NCCc2ccc(O)cc2)c1 [type-B fenolamine crystal form, trans-2-(2,5-dimethoxyphenyl)-3-(4-hydroxy-3-methoxyphenyl)-N-(4-hydroxyphenylethyl) acrylamide]
- Solubility in six solvent systems imitating different pH environments in human body (in words) ([1]; compared with type-F crystal form): good solubility; also recorded: superior to the type-F crystal form
- Stability of the crystal form (powder X-ray diffraction and gas chromatography) ([2]; 60° C., 40° C., 25° C. with RH 90%±5%, 4500 lx±500 lx, 10 days): stable under conditions of high temperature, high humidity and light illumination
